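Assay format: 96-well plates, 48-hour exposure. GI50 marks 50% less growth.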 The source made the active and inactive calls. No stated cut-off is given here; in the data, active = GI50 up to about 1.1 µM and inactive = higher.
Assays:
Assay in all cases: growth of human tumour cells (NCI), 48 h
UO-31 = tested on: UO-31
UACC-257 = tested on: UACC-257
TK-10 = tested on: TK-10
OVCAR-3 = tested on: OVCAR-3
COLO 205 = tested on: COLO 205
SK-OV-3 = tested on: SK-OV-3
PC-3 = tested on: PC-3
SNB-19 = tested on: SNB-19
MDA-MB-231 = tested on: MDA-MB-231
SR = tested on: SR
SF-539 = tested on: SF-539
HCC 2998 = tested on: HCC 2998
DU-145 = tested on: DU-145
BT-549 = tested on: BT-549
MDA-MB-435 = tested on: MDA-MB-435
NCI-H460 = tested on: NCI-H460
MOLT-4 = tested on: MOLT-4
CAKI-1 = tested on: CAKI-1
HOP-62 = tested on: HOP-62
KM12 = tested on: KM12

## Cc1ccc(C(=O)NCc2ccccc2)cc1/N=N/N(C)C
UO-31
  GI50: > 31.5 µM (inactive)
UACC-257
  GI50: 21.4 µM (inactive)
TK-10
  GI50: > 100 µM (inactive)
OVCAR-3
  GI50: 44.3 µM (inactive)
COLO 205
  GI50: > 100 µM (inactive)
SK-OV-3
  GI50: > 100 µM (inactive)
PC-3
  GI50: 71.3 µM (inactive)
SNB-19
  GI50: > 100 µM (inactive)
MDA-MB-231
  GI50: > 100 µM (inactive)
SR
  GI50: 60 µM (inactive)
SF-539
  GI50: > 100 µM (inactive)
HCC 2998
  GI50: > 100 µM (inactive)
DU-145
  GI50: > 100 µM (inactive)
BT-549
  GI50: > 100 µM (inactive)
MDA-MB-435
  GI50: > 100 µM (inactive)
NCI-H460
  GI50: > 100 µM (inactive)
MOLT-4
  GI50: 56.8 µM (inactive)
CAKI-1
  GI50: > 100 µM (inactive)
HOP-62
  GI50: > 100 µM (inactive)
KM12
  GI50: 64.4 µM (inactive)

## Cc1c(N=C(S)Nc2ccc(Cl)cc2)c(=O)n(-c2ccccc2)n1C
UO-31
  GI50: > 100 µM (inactive)
UACC-257
  GI50: > 100 µM (inactive)
TK-10
  GI50: > 100 µM (inactive)
OVCAR-3
  GI50: > 100 µM (inactive)
COLO 205
  GI50: > 100 µM (inactive)
SK-OV-3
  GI50: > 100 µM (inactive)
PC-3
  GI50: > 100 µM (inactive)
SNB-19
  GI50: > 100 µM (inactive)
MDA-MB-231
  GI50: > 100 µM (inactive)
SR
  GI50: > 100 µM (inactive)
SF-539
  GI50: > 100 µM (inactive)
HCC 2998
  GI50: > 100 µM (inactive)
DU-145
  GI50: > 100 µM (inactive)
BT-549
  GI50: > 100 µM (inactive)
MDA-MB-435
  GI50: > 100 µM (inactive)
NCI-H460
  GI50: > 100 µM (inactive)
MOLT-4
  GI50: > 100 µM (inactive)
CAKI-1
  GI50: > 100 µM (inactive)
HOP-62
  GI50: > 100 µM (inactive)
KM12
  GI50: > 100 µM (inactive)

## CN(c1ccc(Cl)cc1)S(=O)(=O)c1cccc([N+](=O)[O-])c1
UO-31
  GI50: 39.9 µM (inactive)
UACC-257
  GI50: > 100 µM (inactive)
TK-10
  GI50: > 100 µM (inactive)
OVCAR-3
  GI50: 55.3 µM (inactive)
COLO 205
  GI50: 65 µM (inactive)
SK-OV-3
  GI50: > 100 µM (inactive)
PC-3
  GI50: 14.3 µM (inactive)
SNB-19
  GI50: > 100 µM (inactive)
MDA-MB-231
  GI50: 44 µM (inactive)
SR
  GI50: 52.6 µM (inactive)
SF-539
  GI50: 66.4 µM (inactive)
HCC 2998
  GI50: 79.1 µM (inactive)
DU-145
  GI50: > 100 µM (inactive)
BT-549
  GI50: 32.7 µM (inactive)
MDA-MB-435
  GI50: 34.8 µM (inactive)
NCI-H460
  GI50: 42.3 µM (inactive)
MOLT-4
  GI50: 17.2 µM (inactive)
CAKI-1
  GI50: 64.6 µM (inactive)
HOP-62
  GI50: 89.3 µM (inactive)
KM12
  GI50: 52.6 µM (inactive)

## COC(=O)CNC(=O)CCC(C)[C@H]1CCC2C3C(C[C@H](OC(C)=O)[C@@]21C)[C@@]1(C)CCC2(C[C@H]1C[C@H]3OC(C)=O)OOC1(CCCCC1)OO2 (stereo not given in full)
UO-31
  GI50: 1.84 µM (inactive)
UACC-257
  GI50: 6.31 µM (inactive)
TK-10
  GI50: 11.2 µM (inactive)
OVCAR-3
  GI50: 2.04 µM (inactive)
COLO 205
  GI50: 1.91 µM (inactive)
SK-OV-3
  GI50: 12.4 µM (inactive)
PC-3
  GI50: 2.49 µM (inactive)
SNB-19
  GI50: 4.63 µM (inactive)
MDA-MB-231
  GI50: 1.64 µM (inactive)
SR
  GI50: 1.24 µM (inactive)
SF-539
  GI50: 1.95 µM (inactive)
HCC 2998
  GI50: 2 µM (inactive)
DU-145
  GI50: 2.34 µM (inactive)
BT-549
  GI50: 1.69 µM (inactive)
MDA-MB-435
  GI50: 2.07 µM (inactive)
NCI-H460
  GI50: 1.76 µM (inactive)
MOLT-4
  GI50: 3.55 µM (inactive)
CAKI-1
  GI50: 2.02 µM (inactive)
HOP-62
  GI50: 0.579 µM (active)
KM12
  GI50: 2.01 µM (inactive)

## Cc1cc(O)c2c(c1)C(=O)C(c1c(C)cc3c(c1O)C(=O)C1OC1C3=O)=CC2=O (stereo not given)
UO-31
  GI50: 1.8 µM (inactive)
UACC-257
  GI50: 4.74 µM (inactive)
TK-10
  GI50: 1.1 µM (active)
OVCAR-3
  GI50: 1.83 µM (inactive)
COLO 205
  GI50: 0.561 µM (active)
SK-OV-3
  GI50: 17.7 µM (inactive)
PC-3
  GI50: 12.5 µM (inactive)
SNB-19
  GI50: 21.5 µM (inactive)
MDA-MB-231
  GI50: 2.03 µM (inactive)
SR
  GI50: 0.327 µM (active)
SF-539
  GI50: 4.48 µM (inactive)
HCC 2998
  GI50: 5.93 µM (inactive)
DU-145
  GI50: 6.7 µM (inactive)
BT-549
  GI50: 2.4 µM (inactive)
MDA-MB-435
  GI50: 2.54 µM (inactive)
NCI-H460
  GI50: 7.87 µM (inactive)
MOLT-4
  GI50: 0.147 µM (active)
CAKI-1
  GI50: 0.796 µM (active)
HOP-62
  GI50: 13.1 µM (inactive)
KM12
  GI50: 13.7 µM (inactive)

## S=c1sc2nc(Cl)nc(Cl)c2s1
UO-31
  GI50: 11.1 µM (inactive)
UACC-257
  GI50: 15.3 µM (inactive)
TK-10
  GI50: 13.6 µM (inactive)
OVCAR-3
  GI50: 10.3 µM (inactive)
COLO 205
  GI50: 7.18 µM (inactive)
SK-OV-3
  GI50: 17.7 µM (inactive)
PC-3
  GI50: 12.4 µM (inactive)
SNB-19
  GI50: 17.9 µM (inactive)
MDA-MB-231
  GI50: 9.02 µM (inactive)
SR
  GI50: 1.04 µM (active)
SF-539
  GI50: 20.6 µM (inactive)
HCC 2998
  GI50: 15.3 µM (inactive)
DU-145
  GI50: 16 µM (inactive)
BT-549
  GI50: 8.87 µM (inactive)
MDA-MB-435
  GI50: 7.94 µM (inactive)
NCI-H460
  GI50: 14.2 µM (inactive)
MOLT-4
  GI50: 0.822 µM (active)
CAKI-1
  GI50: 7.52 µM (inactive)
HOP-62
  GI50: 19.9 µM (inactive)
KM12
  GI50: 7.85 µM (inactive)

## O=C1NCN(c2ccccc2)C12CCN(CCCN1CCN(CCOC(c3ccc(F)cc3)c3ccc(F)cc3)CC1)CC2
UO-31
  GI50: 1.74 µM (inactive)
UACC-257
  GI50: 1.85 µM (inactive)
TK-10
  GI50: 1.75 µM (inactive)
OVCAR-3
  GI50: 2.03 µM (inactive)
COLO 205
  GI50: 1.52 µM (inactive)
SK-OV-3
  GI50: 2.22 µM (inactive)
PC-3
  GI50: 3.05 µM (inactive)
SNB-19
  GI50: 2.72 µM (inactive)
MDA-MB-231
  GI50: 2.15 µM (inactive)
SR
  GI50: 2.36 µM (inactive)
SF-539
  GI50: 1.71 µM (inactive)
HCC 2998
  GI50: 1.51 µM (inactive)
DU-145
  GI50: 1.73 µM (inactive)
BT-549
  GI50: 2.64 µM (inactive)
MDA-MB-435
  GI50: 1.76 µM (inactive)
NCI-H460
  GI50: 2 µM (inactive)
MOLT-4
  GI50: 3.15 µM (inactive)
CAKI-1
  GI50: 2.12 µM (inactive)
HOP-62
  GI50: 1.95 µM (inactive)
KM12
  GI50: 2.43 µM (inactive)

Reference: ChEMBL document CHEMBL1201862, “PubChem BioAssay data set” (2004)
